Assay results as given in patent publication US20210346495A1, “METHODS AND COMPOSITIONS COMPRISING AN NFKB INHIBITOR AND AN ADJUVANT” (priority 2018, published 2021).
“Also recorded” adds a separate entry of the source.

What was measured:
systemic TNF-a and IL-6 [1] = experiment: Systemic cytokines after vaccination with NF-kB inhibitor, CpG and ovalbumin (Example 2); assay type: in vivo, mouse; conditions: one hour post-vaccination
RAW macrophages = experiment: IL-6 expression of RAW macrophages with LPS and NF-kB inhibitors (Example 2)
systemic cytokines = experiment: Plasma cytokine analysis after OVA/CpG/AddaVax vaccination (Example 3); assay type: in vivo, mouse; conditions: for systemic MCP-1 / systemic IFN-γ: combined with CpG; for systemic IFN-γ: 24 h; for systemic IL-6 vs CpG alone, dose study / systemic TNF-α vs CpG alone, all doses / systemic TNF-α, comparison between doses: honokiol 200, 400, 800 μg, capsaicin 1, 5, 20 μg
ovalbumin (OVA) = experiment: Anti-OVA antibody quantification day 21 (Example 3); assay type: in vivo, mouse
RAW 264.7 macrophages = experiment: RAW macrophage cytokine analysis, IL-6 with LPS (Example 3); assay type: cell-based, mouse; conditions: for inhibition of IL-6 expression in vitro: capsaicin 200 μM, honokiol 20 μM, WA 400 nM
Source text: To begin exploring alternative NF-κB inhibitors, the inventors examined the literature for promising candidates. Due to the strong correlation between NF-KB activation and sepsis, cancer and autoimmune disorders, a large library of NF-κB inhibitors have been identified. The inventors first wanted to analyze the potential of a variety small molecule NF-κB inhibitors to inhibit inflammation in vitro in combination with lipopolysaccharide (LPS), a TLR4 agonist. The inventors chose several common commercially available NF-κB inhibitors and tested them in RAW macrophages. […] To determine if immune potentiation was specific to NFkB or general to all anti-inflammatory molecules, the inventors included the most common, FDA approved anti-inflammatory drugs acetaminophen (10 mM) and ibuprofen (800 μM). The inventors treated RAW macrophages with inhibitors and LPS and assayed the supernatant for IL-6 secretion (FIG. 18A).
The inventors examined the activities of the synthesized compounds in order to understand how the various functional groups affect anti-inflammatory action or adaptive immune response (FIGS. 23, 25). The inventors treated RAW macrophages with honokiol derivatives and LPS and analyzed IL-6 expression. The addition of LPS alone without a honokiol derivative gave high levels of IL-6 expression (6848 pg/mL). The addition of honokiol decreased IL-6 levels to 260 pg/mL, a decrease of 26-fold.
RAW macrophage cytokine analysis: RAW 264.7 macrophages were passaged and plated in a cell culture treated 12-well plate at 0.5×10^6 cells/well in 1 mL DMEM containing 10% FBS. Cells were grown for 2 days. Media was exchanged for 1 mL DMEM containing 10% HIFBS. Inhibitors were added at indicated concentrations and incubated for 45 min. After 45 min, LPS was added at 100 ng/mL and incubated at 37° C. and 5% CO2 for 24 h. Cell supernatant was removed and analyzed using BD Cytometric Bead Array Mouse Inflammation Kit.

[2] = Pain response observed after vaccination; assay type: in vivo, mouse; conditions: original dose 20 μg
systemic TNF-a and IL-6 [3] = experiment: Systemic cytokines, AddaVax vaccines with CpG or Pam3CSK4 (Example 2); assay type: in vivo, mouse; conditions: CpG or Pam3CSK4, ovalbumin, one hour
systemic TNF-α and IL-6 = experiment: Systemic cytokines after gp120 vaccination; assay type: in vivo, mouse; conditions: gp120 antigen, 1 h
Procedure: To examine how this would translate in vivo, the inventors vaccinated mice with CpG (50 μg), Pam3CSK4 (20 μg) and R848 (50 μg) using gp120 as the antigen.
Mice were anesthetized lightly with isoflurane and injected intramuscularly in the hind leg with 50 uL containing antigen, adjuvant and PBS. […] CpG dose, 50 μg. SN50, 500 TNF-aN, 30 μg. IL-6N, 30 μg.
Blood was collected from mice at specified time points in 0.2 mL heparin coated collection tubes (VWR Scientific). Serum was isolated via centrifugation 2000×g for 5 min. Supernatant was collected and stored at −80° C. until use. Serum was analyzed using BD Cytometric Bead Array Mouse Th1/Th2/Th17 cytokine kit or Mouse Inflammation cytokine kit according to manufacturer's protocol. Briefly, beads containing antibodies for desired cytokines were mixed with 50 μL serum and 50 μL PE detection reagent and incubated for 2 h. Beads were washed and analyzed using BD Accuri C6 flow cytometer. Data was analyzed using BD Accuri C6 software and Graphpad Prism.

ovalbumin = experiment: Anti-ovalbumin antibody titer day 21, AddaVax vaccines (Example 2); assay type: in vivo, mouse
Source text: The inventors next wanted to examine how capsaicin, honokiol and WA would work with other TLR agonists. Additionally, the inventors wanted to compare these inhibitors to the most commonly used anti-inflammatory drugs, ibuprofen and acetaminophen. The inventors formulated the vaccines using AddaVax, an oil-in-water emulsion to ensure solubility of the inhibitors. The inventors used either CpG, a TLR 9 agonist or Pam3CSK4, a TLR 1/2 agonist as the immune adjuvant and ovalbumin as the antigen. The inventors analyzed systemic cytokines one hour post-vaccination. […] On day 21 the inventors analyzed the anti-ovalbumin antibody titer.

[4] = system: non-human primate (NHP) primary peripheral blood mononuclear cells (PBMCs); experiment: NHP PBMCs stimulated with LPS with or without SN50; assay type: cell-based; conditions: 6 h
Procedure: To understand how this may translate to human vaccinations, the inventors treated THP-1 monocytes with […] LPS with or without SN50. […] Additionally, the inventors examined the effects of SN50 on non-human primate (NHP) primary peripheral blood mononuclear cells (PBMCs). The inventors stimulated NHP PBMCs with SN50 and LPS or LPS alone for 6 h and analyzed the cell supernatant for pro-inflammatory cytokines. […] This implies that SN50 may work similarly in NHP and humans as it does in mice.

[5] = inhibitor 45 min before 100 ng/mL LPS, 3 h
[6] = 100 μg OVA, 50 μg CpG + inhibitor, AddaVax, 1 h
[7] = 100 μg OVA, 50 μg CpG, AddaVax, 1 h

## COc1cc(O)cc(O)c1C(=O)/C=C/c1ccccc1 [cardamonin, Cardamonin]
Systemic TNF-a and IL-6 [1]
  systemic TNF-a: no change in systemic TNF-a levels compared to CpG alone
RAW macrophages; [5]
  IL-6 expression: completely inhibited IL-6 expression
RAW macrophages; inhibitor 45 min before 100 ng/mL LPS, 3 h, listed as Cardamonin
  IL-6 expression: complete reduction of IL-6 to background levels

## COc1cc(/C=C/C(=O)CC(=O)/C=C/c2ccc(O)c(OC)c2)ccc1O [curcumin]
Systemic TNF-a and IL-6 [1]
  systemic IL-6: did not significantly alter the IL-6 levels
  systemic TNF-a: increasing the average expression levels
RAW macrophages; [5]
  IL-6 expression: did not demonstrate a change in IL-6 activity in vitro

## COc1cc(CNC(=O)CCCCC=CC(C)C)ccc1O [capsaicin, 8-methyl-N-vanillyl-6-nonenamide]
Systemic TNF-a and IL-6 [1]
  systemic IL-6: IL-6 levels consistent with PBS injection
  systemic TNF-a: returning the systemic TNF-a levels to background
Systemic cytokines; [6]
  decrease of systemic TNF-α vs CpG: 28 fold
  reduction of systemic IL-6 vs CpG: 20 fold
Systemic cytokines; [7]
  systemic IL-6: 47.4 pg/mL
Systemic cytokines
  systemic MCP-1: slightly elevated MCP-1 levels
  systemic IFN-γ: increased IFN-γ levels at 24 h compared to CpG alone
Systemic cytokines; 1 h
  systemic IL-6 vs CpG alone, dose study: only decreased with 400 μg and 800 μg honokiol and 20 μg capsaicin
  systemic TNF-α vs CpG alone, all doses: decreased TNF-α levels significantly across all doses compared to CpG alone
  systemic TNF-α, comparison between doses: Doses of 5 μg and 20 μg decreased levels of TNF-α significantly more than 1 μg
Ovalbumin (OVA); 1 μg and 5 μg
  anti-OVA antibodies in the serum vs CpG alone: did not change level of anti-OVA antibodies in the serum compared to CpG alone
Ovalbumin (OVA); 20 μg
  anti-OVA antibodies in the serum vs CpG alone: significantly increased serum levels
RAW macrophages; [5]
  IL-6 expression: reduced levels of IL-6
RAW 264.7 macrophages
  inhibition of IL-6 expression in vitro: most effective at inhibiting IL-6 expression in vitro
[2]
  pain response: pain response was observed
Systemic TNF-a and IL-6 [3]
  systemic IL-6: decreased to levels consistent with PBS
  systemic TNF-a: comparable to PBS alone

## Pam3CSK4
Systemic TNF-α and IL-6
  systemic TNF-α and IL-6, effect of adding SN50 to the named adjuvant: significant decrease in systemic cytokines

## COc1cc(O)c2c(c1)/C=C/C[C@H](O)[C@H](O)C(=O)/C=C\C[C@H](C)OC2=O [5-z-o, 5Z-7-Oxozeaenol]
RAW macrophages; [5]
  IL-6 expression: complete reduction of IL-6 to background levels; also recorded: completely inhibited IL-6 expression

## CC(C)Cc1ccc(C(C)C(=O)O)cc1 (stereo not shown) [ibuprofen]
Systemic cytokines; [6]
  decrease of systemic TNF-α vs CpG: 1.4 fold
  systemic IL-6: did not decrease IL-6 expression significantly
Systemic cytokines; [7]
  systemic TNF-α: 738 pg/mL
Ovalbumin (OVA)
  anti-OVA antibody level lower than CpG alone: 3.2 fold
Systemic TNF-a and IL-6 [3]
  systemic IL-6: less effective at decreasing systemic IL-6 levels
ovalbumin
  anti-ovalbumin antibody titer: decreases in antibody titer

## Oc1ccc(C=Cc2cc(O)cc(O)c2)cc1 [resveratrol]
RAW macrophages; [5]
  IL-6 expression: decreases in proinflammatory cytokine activity without entirely blocking expression

## CC(/C=C/C(=O)NO)=C\[C@@H](C)C(=O)c1ccc(N(C)C)cc1 [TSA]
RAW macrophages; [5]
  IL-6 expression: complete reduction of IL-6 to background levels

## lipopolysaccharide [LPS]
RAW macrophages; 100 ng/mL LPS, 3 h post-activation
  IL-6 expression: 362 pg/mL
[4]
  TNF-α and IL-6 in the cell supernatant: high levels of TNF-α and IL-6
RAW 264.7 macrophages; honokiol derivative study
  IL-6 expression: 6848 pg/mL

## O=C(/C=C/c1ccc(O)c(O)c1)OCCc1ccccc1 [CAPE, Caffeic acid phenethyl ester]
Systemic TNF-a and IL-6 [1]
  systemic IL-6: about a two-fold decrease in IL-6 levels
  systemic TNF-a: no change in systemic TNF-a levels compared to CpG alone
RAW macrophages; [5]
  IL-6 expression: complete reduction of IL-6 to background levels; also recorded: completely inhibited IL-6 expression

## CC1=C(CO)C(=O)O[C@@H]([C@@H](C)[C@H]2CC[C@H]3[C@@H]4C[C@H]5O[C@]56[C@@H](O)C=CC(=O)[C@]6(C)[C@H]4CC[C@]23C)C1 [WA, Withaferin A]
Systemic TNF-a and IL-6 [1]
  systemic IL-6: about a two-fold decrease in IL-6 levels
  systemic TNF-a: no change in systemic TNF-a levels compared to CpG alone
Systemic cytokines; [6]
  decrease of systemic TNF-α vs CpG: 1.8 fold
  systemic IL-6: did not decrease IL-6 expression significantly
RAW macrophages; [5]
  IL-6 expression: decreases in proinflammatory cytokine activity without entirely blocking expression; also recorded: completely inhibited IL-6 expression
RAW 264.7 macrophages
  inhibition of IL-6 expression in vitro: most effective at inhibiting IL-6 expression in vitro
Systemic TNF-a and IL-6 [3]
  systemic IL-6: less effective at decreasing systemic IL-6 levels

## CC(=O)Nc1ccc(O)cc1 [acetaminophen]
Systemic cytokines; [6]
  decrease of systemic TNF-α vs CpG: 1.8 fold
  systemic IL-6: did not decrease IL-6 expression significantly
Ovalbumin (OVA)
  anti-OVA antibody level lower than CpG alone: 2.4 fold
Systemic TNF-a and IL-6 [3]
  systemic IL-6: less effective at decreasing systemic IL-6 levels
ovalbumin
  anti-ovalbumin antibody titer: decreases in antibody titer

## CCOCc1nc2c(N)nc3ccccc3c2n1CC(C)(C)O [R848]
Systemic TNF-α and IL-6
  systemic TNF-α and IL-6, effect of adding SN50 to the named adjuvant: significant decrease in systemic cytokines

## O=c1cc(-c2ccc(O)c(O)c2)oc2cc(O)cc(O)c12 [luteolin]
RAW macrophages; [5]
  IL-6 expression: decreases in proinflammatory cytokine activity without entirely blocking expression

## C=CCc1ccc(O)c(-c2ccc(O)c(CC=C)c2)c1 [honokiol]
Systemic TNF-a and IL-6 [1]
  systemic IL-6: about a two-fold decrease in IL-6 levels
  systemic TNF-a: reduced the TNF-a levels by two-fold
Systemic cytokines; [6]
  decrease of systemic TNF-α vs CpG: 2.3 fold
  reduction of systemic IL-6 vs CpG: 3.5 fold
Systemic cytokines; [7]
  systemic IL-6: 266 pg/mL
Systemic cytokines
  systemic MCP-1: slightly elevated MCP-1 levels
  systemic IFN-γ: increased IFN-γ levels at 24 h compared to CpG alone
Systemic cytokines; 1 h
  systemic IL-6 vs CpG alone, dose study: only decreased with 400 μg and 800 μg honokiol and 20 μg capsaicin
  systemic TNF-α vs CpG alone, all doses: significant decrease in TNF-α expression compared to CpG alone
  systemic TNF-α, comparison between doses: no significant difference between the different doses
Ovalbumin (OVA); honokiol 200, 400, 800 μg
  anti-OVA antibodies vs CpG alone, all doses: all doses of honokiol increased levels of anti-OVA antibodies compared to CpG alone
  dose with the highest anti-OVA antibody level: 400 µg
RAW macrophages; [5]
  IL-6 expression: decreases in proinflammatory cytokine activity without entirely blocking expression; also recorded: reduced levels of IL-6
RAW 264.7 macrophages
  inhibition of IL-6 expression in vitro: most effective at inhibiting IL-6 expression in vitro
RAW 264.7 macrophages; honokiol derivative study
  IL-6 expression: 260 pg/mL
  decrease of IL-6 vs LPS alone: 26 fold
Systemic TNF-a and IL-6 [3]
  decrease in systemic IL-6: 4 fold
